The target in assay [1] is T1, Relaxin-3 receptor 2 (Homo sapiens, UniProt Q8TDU9). In words: Displacement of europium-labeled Eu(A)-mINSL5 from human RXFP4 expressed in CHO-K1 cells. Format: cell-based.
Assay [2] concerns the target T1, Relaxin-3 receptor 2. In words: Agonist activity at human RXFP4 expressed in CHO-K1 cells assessed as reduction in forskolin-induced cAMP production by pCRE beta-galactosidase reporter assay. Format: functional, cell-based. In general terms: Changes in cAMP serve as a functional read-out for many G protein-coupled receptors.
Assay [3] concerns the target T1, Relaxin-3 receptor 2. The assay can be described thus: Agonist activity at human RXFP4 expressed in CHO-K1 cells assessed as induction of ERK1/2 phosphorylation incubated for 5 mins by Alpha-screen sure-fire assay. Format: cell-based. The settings on record: filed as agonist. A general note: In Alpha technology, singlet oxygen from a donor bead excites a nearby acceptor bead.

Structures are written as SMILES. Active and inactive are the calls of the source. The calls are words filed in the database; no cut-off is given here. Where a SMILES comes first, the peptide text is derived from it. Bridges are numbered along the chain shown (N, C = ends). Roman numbers before positions name the chains, in order.

By Ki is commonly meant a measure of affinity in units of concentration, obtained from inhibition or displacement. A higher Ki goes with a looser hold on the target. What is called EC50 is the concentration at which the effect is half-maximal.

T1 sequence (Q8TDU9 whole entry): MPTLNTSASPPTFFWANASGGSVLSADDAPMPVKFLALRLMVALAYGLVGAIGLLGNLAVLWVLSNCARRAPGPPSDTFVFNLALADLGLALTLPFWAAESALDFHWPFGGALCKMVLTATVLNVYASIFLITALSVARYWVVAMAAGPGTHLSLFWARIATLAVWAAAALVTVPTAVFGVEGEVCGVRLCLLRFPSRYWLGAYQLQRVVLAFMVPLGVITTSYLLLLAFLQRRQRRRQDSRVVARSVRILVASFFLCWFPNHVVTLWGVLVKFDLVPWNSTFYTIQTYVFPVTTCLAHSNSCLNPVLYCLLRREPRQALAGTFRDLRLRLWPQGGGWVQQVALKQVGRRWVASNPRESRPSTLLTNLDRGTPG

Compound `CC[C@H](C)[C@@H]1NC(=O)[C@H](Cc2ccc(O)cc2)NC(=O)[C@H]([C@@H](C)CC)NC(=O)[C@H](C(C)C)NC(=O)[C@H]([C@@H](C)O)NC(=O)[C@H](CCCNC(=N)N)NC(=O)[C@H]([C@@H](C)CC)NC(=O)[C@H](Cc2ccc(O)cc2)NC(=O)[C@H](CCC(=O)O)NC(=O)[C@H](CC(C)C)NC(=O)CNC(=O)[C@@H](NC(=O)[C@H](CC(C)C)NC(=O)[C@H](CCCNC(=N)N)NC(=O)[C@@H](NC(=O)[C@H](CO)NC(=O)[C@H](CCC(=O)O)NC(=O)[C@@H](N)CCCCN)C(C)C)CSSC[C@H](N)C(=O)N[C@@H]([C@@H](C)O)C(=O)N[C@@H](CC(=O)O)C(=O)NCC(=O)N[C@@H](C)C(=O)N[C@@H](CO)C(=O)N[C@@H](CCSC)C(=O)N[C@@H](CCCCN)C(=O)N[C@@H](CC(=O)O)C(=O)N[C@@H](CC(C)C)C(=O)N[C@@H](CO)C(=O)N[C@@H](C)C(=O)N[C@@H](CC(C)C)C(=O)N[C@H](C(=O)O)CSSC[C@@H](C(=O)N[C@@H](C)C(=O)N[C@@H](CO)C(=O)N[C@@H](CO)C(=O)N[C@@H](CCCNC(=N)N)C(=O)N[C@@H](Cc2c[nH]c3ccccc23)C(=O)O)NC1=O` (I: H-KESVRLCGLEYIRTVIYICASSRW-OH / II: H-CTDGASMKDLSALC-OH; disulfide I:7-II:1, I:19-II:14) displayed a Ki in assay [1] of 29.5 nM. Further, the concentration for a half-maximal effect (EC50) in assay [2] was determined as 20.9 nM. Also, the outcome in assay [3] was Active.

In the case of `CC[C@H](C)[C@@H]1NC(=O)[C@H](Cc2ccc(O)cc2)NC(=O)[C@H]([C@@H](C)CC)NC(=O)[C@H](C(C)C)NC(=O)[C@H]([C@@H](C)O)NC(=O)[C@H](CCCNC(=N)N)NC(=O)[C@H]([C@@H](C)CC)NC(=O)[C@H](Cc2ccc(O)cc2)NC(=O)[C@H](CCC(=O)O)NC(=O)[C@H](CC(C)C)NC(=O)CNC(=O)[C@@H](NC(=O)[C@H](CC(C)C)NC(=O)[C@H](CCCNC(=N)N)NC(=O)[C@@H](NC(=O)[C@H](CO)NC(=O)[C@H](CCC(=O)O)NC(=O)[C@@H](N)CCCCN)C(C)C)CSSC[C@@H]2NC(=O)[C@@H](NC(=O)[C@H](CC(C)C)NC(=O)[C@@H](NC(=O)[C@H](CCC(N)=O)NC(=O)[C@H](CC(C)C)NC(=O)[C@H](CC(=O)O)NC(=O)C3CCC(=O)N3)[C@@H](C)O)CSSC[C@H](NC(=O)CNC(=O)[C@H](CCC(=O)O)NC(=O)[C@H]([C@@H](C)O)NC2=O)C(=O)N[C@@H](CO)C(=O)N[C@@H](CCSC)C(=O)N[C@@H]([C@@H](C)O)C(=O)N[C@@H](CC(=O)O)C(=O)N[C@@H](CC(C)C)C(=O)N[C@@H](CO)C(=O)N[C@@H](C)C(=O)N[C@@H](CC(C)C)C(=O)N[C@H](C(=O)O)CSSC[C@@H](C(=O)N[C@@H](C)C(=O)N[C@@H](CO)C(=O)N[C@@H](CO)C(=O)N[C@@H](CCCNC(=N)N)C(=O)N[C@@H](Cc2c[nH]c3ccccc23)C(=O)O)NC1=O` (stereo partly specified), in assay [1], the affinity corresponds to a Ki of 33.1 nM. Moreover, the EC50 in assay [2] amounted to 4.57 nM. The result in assay [3] was Active.

Values taken from ChEMBL document CHEMBL4715703, “Engineering of a Novel Simplified Human Insulin-Like Peptide 5 Agonist” (J Med Chem, 2016).
